In test [1] the target is T1, Angiomotin (Homo sapiens) (UniProt Q4VCS5).
T1 sequence (whole entry): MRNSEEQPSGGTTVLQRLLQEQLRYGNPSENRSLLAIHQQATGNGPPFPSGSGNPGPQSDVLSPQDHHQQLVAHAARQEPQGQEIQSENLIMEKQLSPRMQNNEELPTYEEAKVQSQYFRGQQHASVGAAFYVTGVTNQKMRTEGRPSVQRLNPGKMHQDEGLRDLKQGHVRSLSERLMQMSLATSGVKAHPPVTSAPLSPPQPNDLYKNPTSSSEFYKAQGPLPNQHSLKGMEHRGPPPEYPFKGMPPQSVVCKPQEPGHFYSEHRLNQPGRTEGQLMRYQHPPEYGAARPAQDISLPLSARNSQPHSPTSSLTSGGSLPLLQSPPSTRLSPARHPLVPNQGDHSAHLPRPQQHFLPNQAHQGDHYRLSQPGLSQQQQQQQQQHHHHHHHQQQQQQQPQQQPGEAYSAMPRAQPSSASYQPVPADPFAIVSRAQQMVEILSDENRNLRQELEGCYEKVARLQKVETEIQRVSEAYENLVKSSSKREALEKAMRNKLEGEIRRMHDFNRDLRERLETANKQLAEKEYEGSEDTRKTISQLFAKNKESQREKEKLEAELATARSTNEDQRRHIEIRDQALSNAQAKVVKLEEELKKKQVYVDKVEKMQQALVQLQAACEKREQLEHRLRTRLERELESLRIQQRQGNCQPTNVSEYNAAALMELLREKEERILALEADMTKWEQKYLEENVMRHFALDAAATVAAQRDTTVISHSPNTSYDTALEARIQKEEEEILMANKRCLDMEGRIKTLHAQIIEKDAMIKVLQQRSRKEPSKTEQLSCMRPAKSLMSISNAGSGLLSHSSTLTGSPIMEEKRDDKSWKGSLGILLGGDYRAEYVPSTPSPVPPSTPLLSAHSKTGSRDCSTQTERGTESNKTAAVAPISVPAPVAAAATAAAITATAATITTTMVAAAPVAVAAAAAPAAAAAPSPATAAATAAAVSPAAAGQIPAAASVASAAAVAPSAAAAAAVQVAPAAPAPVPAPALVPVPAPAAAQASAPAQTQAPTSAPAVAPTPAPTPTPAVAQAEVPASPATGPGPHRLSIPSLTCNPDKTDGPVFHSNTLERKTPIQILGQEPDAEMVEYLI
Kind of test: Binding affinity to recombinant GST-tagged Amot (H343 to I675 residues) (unknown origin) expressed in Escherichia coli at 50 uM using Amot immobilized on gold electrode of QCM sensor chip by […] biosensor-based assay.

For test [2], the target named is T1, Angiomotin (Homo sapiens). In words: Binding affinity to recombinant GST-tagged Amot (H343 to I675 residues) (unknown origin) expressed in Escherichia coli at 25 uM using Amot immobilized on gold electrode of QCM sensor chip by […] biosensor-based assay.
Test [3] deals with HUVEC. In words: Inhibition of cell proliferation of HUVEC at 12.5 to 200 uM after 72 hrs by MTS assay. Conditions: Homo sapiens. It is filed as functional, cell-based. (Formazan colour is commonly taken as a measure of viable cells.)

Our source for the Activity and IC50 values is ChEMBL document CHEMBL3393018, “Multimodal biopanning of T7 phage-displayed peptides reveals angiomotin as a potential receptor of the anti-angiogenic macrolide Roxithromycin” (Eur J Med Chem, 2015).

Active and inactive are the calls of the source. The rule behind the calls is not given here.

Broadly, the IC50 is the midpoint of a concentration-inhibition curve. Turning to `CC[C@H]1OC(=O)[C@H](C)[C@@H](O[C@H]2C[C@@](C)(OC)[C@@H](O)[C@H](C)O2)[C@H](C)[C@@H](O[C@@H]2O[C@H](C)C[C@H](N(C)C)[C@H]2O)[C@](C)(O)C[C@@H](C)/C(=N\OCOCCOC)[C@H](C)[C@@H](O)[C@]1(C)O` [ROXITHROMYCIN], the outcome in test [1] and in test [2] was Active. Also, the 50% inhibitory concentration (IC50) in test [3] is 100 µM.
